Assay results: patent publication US6491948B1, “Composition comprising isoquercetin and ascorbic acid in a sustained release form” (Merck Patent GmbH, priority 1999, dated 2002)

How the values were obtained:
[1] = in vivo; cited from earlier work
[2] = in vivo; cited from earlier work; remark: listed apart in the source
[3] = pharmacokinetic studies: absorption and bioavailability; set-up: species or system man; settings: in vivo
Source text: Absorbed isoquercetin interacts with ascorbate keeping it in the reduced state and, at the same time, is being protected by ascorbate by being kept in the oxidized state (Yamasaki, H. et al. (1997), Flavanoid-peroxidase reaction as a detoxification mechanism of plant cells against H2O2).

[4] = man; cited from earlier work
[5] = passage of the blood-brain barrier / entry into the brain; assay type: in vivo; settings: isoquercetin given one hour before ascorbate
Source text: The second form of ascorbic acid, semidehydroascorbic acid (ascorbate free radical) participates in univalent redox systems that is in the antioxidant defense activity. See Bors, W. et al. (1995), Interaction of Flavonoids with Ascorbate and Determination of their Univalent Redox Potentials: a Pulse Radiolysis Study, Free Radical Biology and Medicine, vol. 19, No. 1, 45-52. This means semidehydroascorbic acid participates most likely in free radical scavenging activities. According to the article Gordon, M. H. (1996), Dietary Antioxidants in Disease Prevention, Natural Product Reports, pp. 265-273, “ascorbate appears to be the most important non-protein antioxidant in plasma” p. 270. […] See Agus, D. B. et al. (1997), Vitamin C crosses the blood-brain barrier in the oxidized form through the glucose transporters, J. Clin. Invest., 100 (11) 2842-2848. After entering the brain dehydroascorbic acid is reduced and retained as ascorbic acid.

| SMILES | concentration in brain relative to blood serum [1] [times] | crossing of the blood-brain barrier [2] | absorption rate and bioavailability [3] | absorption compared with rutin and quercetin [4] | entry into the brain and reduction of dehydroascorbate [5] |
| --- | --- | --- | --- | --- | --- |
| O=C1O[C@H]([C@@H](O)CO)C(O)=C1O [Ascorbic acid, ascorbic acid] | 10 | not able to cross blood-brain barrier |  |  |  |
| O=C1O[C@H]([C@@H](O)CO)C(=O)C1=O [dehydroascorbic acid] |  | readily enters the brain |  |  |  |
| O=c1c(O[C@@H]2O[C@H](CO)[C@@H](O)[C@H](O)[C@H]2O)c(-c2ccc(O)c(O)c2)oc2cc(O)cc(O)c12 [isoquercetin, quercetin-3-O-glucoside] |  |  | excellent absorption rate and bioavailability | absorbed better than rutin and quercetin | enters the brain and reduces dehydroascorbate |
